According to US20250057928A1, “VACCINE COMPOSITION FOR INDUCING ANTI-IL-23 ANTIBODY” (OSAKA UNIVERSITY, priority 2021, published 2025):
Where no end group is shown, it is not given here.

How the values were obtained:
[1] = system: IL-17 production in rhIL-23 stimulated mouse splenocyte; assay: Neutralization activity of mouse antiserum: IL-17 production in rhIL-23 stimulated mouse splenocyte; type: cell-based; conditions: antiserum final 15-fold, rhIL-23 10 ng/ml, 3 days culture; IL-17A/F ELISA
Experimental: (§1) AJP001 conjugated peptide (SEQ ID NOs: 6-37) was dissolved in physiological saline, mixed with an equal amount of 2% Alhydrogel (invivogen), and this was intradermally administered to BALB/c mice (female, 6-week-old, N=5-6) at 0.5 mg/body 3 times at two-week intervals. Blood was collected before administration and at the time point of 6 weeks after initial administration, and the antibody titer (GMT) to each epitope sequence and binding ability to recombinant human IL-23 protein (rhIL-23) (Peprotech) were measured by the ELISA method (same method as in Example 1). The binding to rhIL-23 was evaluated by a binding ratio to normal serum by calculating the ratio of the absorbance of a well added with normal mouse serum to the absorbance of a well added with antiserum derived from a mouse administered with each AJP001 conjugated peptide (SEQ ID NOs: 6-37). In addition, the neutralization activity of mouse antiserum was evaluated using an action on IL-17 production in rhIL-23 stimulated mouse splenocyte as an index. The spleen of normal BALB/c mouse (female, 5-week-old, N=3) was triturated using a syringe barrel and a cell strainer and washed with and suspended in HBSS (−). Erythrocytes were then removed using ACK Buffer (Thermo fisher scientific), and splenocytes were isolated. The splenocytes were prepared to 2.5×10^6 cells/mL with 10% FBS/1% penicillin/streptomycin/4 ng/mL rmIL-2-containing RPMI1640 medium (culture medium), and seeded in a 96 well plate at 100 μl/well. The antiserum (final concentration 15-fold) of the mice administered with each AJP001 conjugated peptide and rhIL-23 (final concentration 10 ng/ml) were added to the culture medium, reacted at 37° C. for 2 hr, added at 100 μL/well to a 96-well plate seeded with splenocytes, and cultured for 3 days in a 37° C./5% CO2 incubator. An untreated well and a control well to which normal mouse serum and rhIL-23 were added were provided. IL-17A/F in the culture supernatant was measured using Mouse IL-17A/F ELISA kit (R&D systems), the proportion (%) of IL-17 to normal serum was calculated from the IL-17 concentrations of untreated well (A), control well (B), and well (C) to which antiserum of the mice administered with each AJP001 conjugated peptide was added and according to the following formula, and the neutralization activity was evaluated.
Percentage of IL-17 to normal serum (%)=100×(C−A/B−A)

[2] = system: epitope peptide; assay: Antibody titer (GMT) of serum of mice administered AJP001 conjugated peptide, ELISA; type: in vivo, mouse; conditions: BALB/c mice, 0.5 mg/body intradermal with equal amount of 2% Alhydrogel, 3 times at two-week intervals; serum 6 weeks after initial administration; titer to each epitope sequence
Experimental: AJP001 conjugated peptide having one of the B cell epitope sequences of SEQ ID NOs: 1-5 was dissolved in physiological saline and intradermally administered twice to BALB/c mice (female, 6-week-old, N=5-6) at 0.5 mg/body at 2-week intervals. Blood was collected before administration and 5 weeks after the initial administration, and the antibody titer against each AJP001 conjugated peptide and the binding ability to recombinant mouse IL-23 protein (rmIL-23) were measured by the ELISA method. Specifically, a 96-well plate immobilized with an epitope peptide dissolved at 10 μg/mL in carbonate buffer was blocked with 5% skim milk/PBS, and then serum serially diluted with 5% skim milk/PBS was added, and the mixture was left standing at 4° C. overnight. After washing the wells with PBS-T, HRP-labeled anti-mouse IgG antibody (GE Healthcare) diluted with 5% skim milk/PBS was added and the mixture was shaken at room temperature for 3 hr. After washing the wells with PBS-T, TMB solution (SIGMA) was added, the wells were allowed to stand for 30 min in the dark, the reaction was stopped by adding 0.5M H2SO4, and the absorbance at 450 nm was measured using a plate reader. The serum dilution rate that gave 1/2 (OD=1.75) of the maximum absorbance was defined as the antibody titer, and the geometric mean titer: GMT was calculated from the individual values. Binding to IL-23 protein was measured by the ELISA method in the same manner as the antibody titer, using rmIL-23 (Antibodies-online GmbH) as the solid-phased antigen and goat serum for blocking.
AJP001 conjugated peptide (SEQ ID NO: 2) was dissolved in physiological saline and intradermally administered to BALB/c mice (female, 6-week-old, N=6) at 1 mg/body 3 times at two-week intervals, and blood was collected every 2 weeks until 8 weeks. The antibody titer (GMT) of all the collected sera and the binding ability to rmIL-23 of the serum at the time point of 6 weeks were measured by the ELISA method (same method as in Example 1). The antibody titer and the binding of the induced antibody to rmIL-23 at each time point are shown in FIGS. 2 (a) and (b), respectively.
as §1, with “An untreated well and a control well to which normal mouse serum and rhIL-23 were added were provided. IL-17A/F in the culture supernatant was measured using Mouse IL-17A/F ELISA kit (R&D systems), the proportion (%) of IL-17 to normal serum was calculated from the IL-17 concentrations of untreated well (A), control well (B), and well (C) to which antiserum of the mice administered with each AJP001 conjugated peptide was added and according to the following formula, and the neutralization activity was evaluated.” left out

[3] = system: recombinant human IL-23 protein (rhIL-23); assay: Binding of mouse antiserum to rhIL-23, ELISA; conditions: rhIL-23 ELISA; antiserum of BALB/c mice 6 weeks after initial administration, 0.5 mg/body with Alhydrogel
Experimental: as §1
AJP001 conjugated peptide (SEQ ID NO: 6) was dissolved in physiological saline and intradermally administered to BALB/c mice (female, 6-week-old, N=6) at 1 mg/body 3 times at two-week intervals, and blood was collected every 2 weeks until 8 weeks. The antibody titer (GMT) of all the collected sera and the binding ability to rhIL-23 of the serum at 6 weeks were measured by the ELISA method. In FIG. 5, “*” means P<0.05.

Substance	binding to IL-23 (binding ratio to normal serum) [3]	neutralization activity (percentage of IL-17 to normal serum (%)) [1] [%]	antibody titer (GMT) [2]
20 (SPSQTWQR; not fully specified (N-terminus)) [compound 20]	1.23	5.8	36347
17 (SSSQPWQR; not fully specified (N-terminus)) [compound 17]	1.26	1.6	6096
19 (SPSQSWQR; not fully specified (N-terminus)) [compound 19]	1.33	2.4	18311
16 (QWQRPWQR; not fully specified (N-terminus)) [compound 16]	1.09	3.6	201
11 (SPSQAWQR; not fully specified (N-terminus)) [compound 11]	1.55	8.1	10441
14 (SPSQPWQA; not fully specified (N-terminus)) [compound 14]	1.23	8.0	3331
7 (APSQPWQR; not fully specified (N-terminus)) [compound 7]	1.40	4.2	5417
10 (SPSAPWQR; not fully specified (N-terminus)) [compound 10]	1.03	0.0	19795
18 (STSQPWQR; not fully specified (N-terminus)) [compound 18]	1.21	0.0	8211
12 (SPSQPAQR; not fully specified (N-terminus)) [compound 12]	1.12	3.1	48594
13 (SPSQPWAR; not fully specified (N-terminus)) [compound 13]	1.11	4.8	3215

Further lines, with some results ahead:

binding to IL-23 (binding ratio to normal serum) [3]	Substance	neutralization activity (percentage of IL-17 to normal serum (%)) [1] [%]	antibody titer (GMT) [2]
1.11	29 (SPKQPWQR; not fully specified (N-terminus)) [compound 29]	63.9	9056
1.15	26 (STSQQWQR; not fully specified (N-terminus)) [compound 26]	0.0	64652
1.07	21 (SSSQSWQR; not fully specified (N-terminus)) [compound 21]	6.9	19793
1.20	24 (STSQTWQR; not fully specified (N-terminus)) [compound 24]	0.0	126353
1.66	25 (SPSQQWQR; not fully specified (N-terminus)) [compound 25]	2.1	285265
1.05	37 (QPWQRGGGGSQPWQR; not fully specified (N-terminus)) [compound 37]	63.9	6459
1.13	28 (SKSQPWQR; not fully specified (N-terminus)) [compound 28]	42.2	4324
1.07	27 (KPSQPWQR; not fully specified (N-terminus)) [compound 27]	72.3	12615
1.10	36 (QPWQRSQPWQR; not fully specified (N-terminus)) [compound 36]	70.3	8202
1.03	32 (SQPWQR; not fully specified (N-terminus); listed as Homo sapiens) [compound 32]	61.3	5567
1.35	22 (SSSQTWQR; not fully specified (N-terminus)) [compound 22]	8.5	2160
0.99	31 (PSQPWQR; not fully specified (N-terminus); listed as Homo sapiens) [compound 31]	63.4	12417
